# Data published in publication PMC9090415, “Discovery of small molecule inhibitors of Plasmodium falciparum apicoplast DNA polymerase” (Journal of Enzyme Inhibition and Medicinal Chemistry, 2022).
# Molecular target: T1, bacteriophage T4 DNA polymerase (Enterobacteria phage T4, UniProt P04415)
# T1 construct: made in house
# T1 sequence (P04415 1-898): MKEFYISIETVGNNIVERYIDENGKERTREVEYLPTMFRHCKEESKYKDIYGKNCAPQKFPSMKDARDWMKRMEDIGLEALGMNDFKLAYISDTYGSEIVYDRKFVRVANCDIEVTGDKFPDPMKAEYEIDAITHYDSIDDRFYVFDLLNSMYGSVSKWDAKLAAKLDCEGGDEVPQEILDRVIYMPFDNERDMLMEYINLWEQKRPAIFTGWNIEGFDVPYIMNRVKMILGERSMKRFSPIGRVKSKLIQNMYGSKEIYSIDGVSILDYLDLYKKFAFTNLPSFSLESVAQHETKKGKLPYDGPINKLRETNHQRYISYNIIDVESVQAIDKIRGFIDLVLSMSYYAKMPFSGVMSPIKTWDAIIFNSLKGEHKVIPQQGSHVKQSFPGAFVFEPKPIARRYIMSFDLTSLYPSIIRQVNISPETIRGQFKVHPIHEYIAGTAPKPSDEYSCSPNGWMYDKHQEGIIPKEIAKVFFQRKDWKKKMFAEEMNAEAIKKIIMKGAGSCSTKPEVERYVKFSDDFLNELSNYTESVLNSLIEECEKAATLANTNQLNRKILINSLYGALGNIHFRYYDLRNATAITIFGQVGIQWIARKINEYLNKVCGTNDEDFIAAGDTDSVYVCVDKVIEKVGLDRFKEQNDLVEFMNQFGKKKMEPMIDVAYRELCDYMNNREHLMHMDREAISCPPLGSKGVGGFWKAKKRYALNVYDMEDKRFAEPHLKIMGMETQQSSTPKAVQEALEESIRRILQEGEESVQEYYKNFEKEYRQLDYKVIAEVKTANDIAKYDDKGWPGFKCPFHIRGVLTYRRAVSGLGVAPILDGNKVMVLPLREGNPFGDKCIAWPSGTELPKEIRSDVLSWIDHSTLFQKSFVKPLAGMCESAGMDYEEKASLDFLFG
# Assay: Counter-screen against bacteriophage T4 DNA polymerase
# Type: biochemical
# Conditions: for % inhibition T4 10' 2.5 / % inhibition T4 10' 5 / % inhibition T4 10' 10 / % inhibition T4 10' 20 / % inhibition T4 10' 40 / % inhibition T4 10' 80: read at 10'; for % inhibition T4 10' 5 / % inhibition T4 70' 5 / % inhibition T4 130' 5 / % inhibition T4 40' 5 / % inhibition T4 90' 5 / % inhibition T4 180' 5: concentration 5; for % inhibition T4 70' 2.5 / % inhibition T4 70' 5 / % inhibition T4 70' 10 / % inhibition T4 70' 20 / % inhibition T4 70' 40 / % inhibition T4 70' 80: read at 70'; for % inhibition T4 130' 2.5 / % inhibition T4 130' 5 / % inhibition T4 130' 10 / % inhibition T4 130' 20 / % inhibition T4 130' 40 / % inhibition T4 130' 80: read at 130'; for % inhibition T4 40' 2.5 / % inhibition T4 40' 5 / % inhibition T4 40' 10 / % inhibition T4 40' 20 / % inhibition T4 40' 40 / % inhibition T4 40' 80: read at 40'; for % inhibition T4 90' 2.5 / % inhibition T4 90' 5 / % inhibition T4 90' 10 / % inhibition T4 90' 20 / % inhibition T4 90' 40 / % inhibition T4 90' 80: read at 90'; for % inhibition T4 180' 2.5 / % inhibition T4 180' 5 / % inhibition T4 180' 10 / % inhibition T4 180' 20 / % inhibition T4 180' 40 / % inhibition T4 180' 80: read at 180'
# Method: Codon-optimized, exonuclease-deficient Pf-apPOL was overexpressed in E. coli BL21 (DE3) and purified as described. The protein was dialysed against two, 1-liter changes of 20 mM Tris-HCl (pH 8.0), 400 mM NaCl, and 20% glycerol. Plasmodium bergei and Babesia bovis apPOLs (Pb-apPOL and Bb-apPOL, respectively) were codon-optimized, expressed, and purified as for Pf-apPOL[15]. Bacteriophage T4 DNA polymerase was purified as described. The DNA oligonucleotides used to make the high-throughput substrate were obtained from Integrated DNA Technologies. Deoxynucleotides were purchased from Strategene. All other materials came from Fisher Scientific.
# Each compound was tested in a dose-response format to determine IC50 values. […] T4 DNA polymerase can be produced in large quantities, and is in the same family (B-family) as the replicative human DNA polymerases (α, δ, and ε)[20].
smiles,measurement,setting,value
"Cc1ccc(NC(=O)C2CCN(C(=O)c3cc4ccsc4[nH]3)CC2)c(Br)c1 [Molecule 14, O=C(C1CCN(CC1)C(=O)c1cc2c([nH]1)scc2)Nc1ccc(cc1Br)C]",% inhibition T4 10',"DRC-2, concentration 20",5%
same,% inhibition T4 10',"DRC-2, concentration 40",10%
same,% inhibition T4 10',"DRC-2, concentration 80",10%
same,% inhibition T4 40',"DRC-2, concentration 20",5%
same,% inhibition T4 40',"DRC-2, concentration 40",8%
same,% inhibition T4 40',"DRC-2, concentration 80",10%
same,% inhibition T4 90',"DRC-2, concentration 40",6%
same,% inhibition T4 90',"DRC-2, concentration 80",8%
"COc1ccc(/C=C/c2cc(C(=O)O)c3ccccc3n2)cc1 [Molecule 5, COc1ccc(cc1)/C=C/c1nc2ccccc2c(c1)C(=O)O]",% inhibition T4 10' 2.5,"DRC-1, concentration 2.5",1.081%
same,% inhibition T4 10' 5,DRC-1,5.185%
same,% inhibition T4 10' 10,"DRC-1, concentration 10",0.5818%
same,% inhibition T4 10' 20,"DRC-1, concentration 20",-3.901%
same,% inhibition T4 10' 40,"DRC-1, concentration 40",-6.063%
same,% inhibition T4 10' 80,"DRC-1, concentration 80",5.54%
same,% inhibition T4 70' 2.5,"DRC-1, concentration 2.5",-11.7738%
same,% inhibition T4 70' 5,DRC-1,-0.8035%
same,% inhibition T4 70' 10,"DRC-1, concentration 10",5.827%
same,% inhibition T4 70' 20,"DRC-1, concentration 20",2.436%
same,% inhibition T4 70' 40,"DRC-1, concentration 40",2.364%
same,% inhibition T4 70' 80,"DRC-1, concentration 80",3.646%
same,% inhibition T4 130' 2.5,"DRC-1, concentration 2.5",-10.2066%
same,% inhibition T4 130' 5,DRC-1,-1.2832%
same,% inhibition T4 130' 10,"DRC-1, concentration 10",4.495%
same,% inhibition T4 130' 20,"DRC-1, concentration 20",3.3008%
same,% inhibition T4 130' 40,"DRC-1, concentration 40",3.939%
same,% inhibition T4 130' 80,"DRC-1, concentration 80",6.199%
same,% inhibition T4 10' 2.5,"DRC-2, concentration 2.5",4.49%
same,% inhibition T4 10' 5,DRC-2,7%
same,% inhibition T4 10' 10,"DRC-2, concentration 10",18%
same,% inhibition T4 10' 20,"DRC-2, concentration 20",21%
same,% inhibition T4 10' 40,"DRC-2, concentration 40",24%
same,% inhibition T4 10' 80,"DRC-2, concentration 80",17%
same,% inhibition T4 40' 2.5,"DRC-2, concentration 2.5",4%
same,% inhibition T4 40' 5,DRC-2,8%
same,% inhibition T4 40' 10,"DRC-2, concentration 10",18%
same,% inhibition T4 40' 20,"DRC-2, concentration 20",27%
same,% inhibition T4 40' 40,"DRC-2, concentration 40",31%
same,% inhibition T4 40' 80,"DRC-2, concentration 80",26%
same,% inhibition T4 90' 2.5,"DRC-2, concentration 2.5",3%
same,% inhibition T4 90' 5,DRC-2,6.33%
same,% inhibition T4 90' 10,"DRC-2, concentration 10",16%
same,% inhibition T4 90' 20,"DRC-2, concentration 20",25%
same,% inhibition T4 90' 40,"DRC-2, concentration 40",29%
same,% inhibition T4 90' 80,"DRC-2, concentration 80",27%
same,% inhibition T4 180' 2.5,"DRC-2, concentration 2.5",-3.34%
same,% inhibition T4 180' 5,DRC-2,0.194%
same,% inhibition T4 180' 10,"DRC-2, concentration 10",10%
same,% inhibition T4 180' 20,"DRC-2, concentration 20",18%
same,% inhibition T4 180' 40,"DRC-2, concentration 40",25%
same,% inhibition T4 180' 80,"DRC-2, concentration 80",24%
"O=C(Cc1cc(=O)[nH]c(SCc2ccccc2)n1)Nc1ccc2c(c1)OCO2 [Molecule 46, O=C(Cc1cc(=O)[nH]c(n1)SCc1ccccc1)Nc1ccc2c(c1)OCO2]",% inhibition T4 10',"DRC-2, concentration 2.5",-13%
same,% inhibition T4 10',"DRC-2, concentration 40",9%
same,% inhibition T4 10',"DRC-2, concentration 80",6%
same,% inhibition T4 40',"DRC-2, concentration 2.5",-13%
same,% inhibition T4 40',"DRC-2, concentration 40",9%
same,% inhibition T4 40',"DRC-2, concentration 80",6%
same,% inhibition T4 90',"DRC-2, concentration 10",4%
same,% inhibition T4 90',"DRC-2, concentration 40",9%
same,% inhibition T4 180',"DRC-2, 180', concentration 40",4%
CC(=O)Nc1cc(C(=O)c2cccs2)nn(-c2ccc(Cl)cc2)c1=O [KU0267905],% inhibition T4 10' 2.5,"DRC-1, concentration 2.5",-2.1822%
same,% inhibition T4 10' 5,DRC-1,-1.511%
same,% inhibition T4 10' 10,"DRC-1, concentration 10",8.968%
same,% inhibition T4 10' 20,"DRC-1, concentration 20",21.6077%
same,% inhibition T4 10' 40,"DRC-1, concentration 40",20.7445%
same,% inhibition T4 10' 80,"DRC-1, concentration 80",21.8297%
same,% inhibition T4 70' 2.5,"DRC-1, concentration 2.5",-0.6527%
same,% inhibition T4 70' 5,DRC-1,-1.806%
same,% inhibition T4 70' 10,"DRC-1, concentration 10",6.193%
same,% inhibition T4 70' 20,"DRC-1, concentration 20",12.7493%
same,% inhibition T4 70' 40,"DRC-1, concentration 40",13.4043%
same,% inhibition T4 70' 80,"DRC-1, concentration 80",12.69%
same,% inhibition T4 130' 2.5,"DRC-1, concentration 2.5",-1.3658%
same,% inhibition T4 130' 5,DRC-1,-4.349%
same,% inhibition T4 130' 10,"DRC-1, concentration 10",2.501%
same,% inhibition T4 130' 20,"DRC-1, concentration 20",8.205%
same,% inhibition T4 130' 40,"DRC-1, concentration 40",8.984%
same,% inhibition T4 130' 80,"DRC-1, concentration 80",8.594%
same,% inhibition T4 10' 2.5,"DRC-2, concentration 2.5",8%
same,% inhibition T4 10' 5,DRC-2,8.43%
same,% inhibition T4 10' 10,"DRC-2, concentration 10",8%
same,% inhibition T4 10' 20,"DRC-2, concentration 20",1.18%
same,% inhibition T4 10' 40,"DRC-2, concentration 40",7%
same,% inhibition T4 10' 80,"DRC-2, concentration 80",2.64%
same,% inhibition T4 40' 2.5,"DRC-2, concentration 2.5",7%
same,% inhibition T4 40' 5,DRC-2,7.5%
same,% inhibition T4 40' 10,"DRC-2, concentration 10",6.35%
same,% inhibition T4 40' 20,"DRC-2, concentration 20",0.171%
same,% inhibition T4 40' 40,"DRC-2, concentration 40",4%
same,% inhibition T4 40' 80,"DRC-2, concentration 80",0.303%
same,% inhibition T4 90' 2.5,"DRC-2, concentration 2.5",5%
same,% inhibition T4 90' 5,DRC-2,5%
same,% inhibition T4 90' 10,"DRC-2, concentration 10",4%
same,% inhibition T4 90' 20,"DRC-2, concentration 20",-2%
same,% inhibition T4 90' 40,"DRC-2, concentration 40",2.26%
same,% inhibition T4 90' 80,"DRC-2, concentration 80",-0.743%
same,% inhibition T4 180' 2.5,"DRC-2, concentration 2.5",0.767%
same,% inhibition T4 180' 5,DRC-2,0.673%
same,% inhibition T4 180' 10,"DRC-2, concentration 10",0.174%
same,% inhibition T4 180' 20,"DRC-2, concentration 20",-8%
same,% inhibition T4 180' 40,"DRC-2, concentration 40",-2.82%
same,% inhibition T4 180' 80,"DRC-2, concentration 80",-3.56%
